Our source for the IC50 and Ki values is ChEMBL document CHEMBL1909046, “DrugMatrix in vitro pharmacology data”.

Test [1] concerns the target 5-hydroxytryptamine receptor 4 (Cavia porcellus, UniProt O70528). It counts as cell membranes, Dunkin-Hartley, Striatum, Membrane. Particulars: for pIC50: read-out: IC50; for pKi: read-out: Ki. For all read-outs here: in other assays of this panel Not Active means under 50% inhibition at 10 µM.
Another test deals with Cannabinoid receptor 1 (Homo sapiens, UniProt P21554). It counts as cell membranes, Chem-1, Membrane. Particulars: chem-1.
Cannabinoid receptor 1, sequence (P21554 whole entry): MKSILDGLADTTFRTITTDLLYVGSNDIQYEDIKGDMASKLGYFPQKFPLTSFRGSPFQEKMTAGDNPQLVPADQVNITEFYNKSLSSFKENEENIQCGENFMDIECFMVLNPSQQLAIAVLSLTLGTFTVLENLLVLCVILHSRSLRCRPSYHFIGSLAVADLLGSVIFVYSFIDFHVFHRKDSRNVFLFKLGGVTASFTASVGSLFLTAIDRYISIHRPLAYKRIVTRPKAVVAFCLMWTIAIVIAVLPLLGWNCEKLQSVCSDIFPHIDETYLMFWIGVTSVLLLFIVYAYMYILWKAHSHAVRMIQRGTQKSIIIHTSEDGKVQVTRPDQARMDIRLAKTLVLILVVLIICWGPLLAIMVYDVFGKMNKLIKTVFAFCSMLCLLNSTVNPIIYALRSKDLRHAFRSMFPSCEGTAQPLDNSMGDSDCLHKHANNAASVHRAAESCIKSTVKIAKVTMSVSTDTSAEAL
Test [2] can be described thus: DRUGMATRIX: Interleukin IL-1 radioligand binding (ligand: [125I] interleukin 1beta). It counts as cell membranes, Membrane. As to conditions: nih3t3; Not Active = under 50% inhibition at 10 µM.
In a further test the target is Melanocortin receptor 3 (Homo sapiens, UniProt P41968). It counts as cell membranes, HEK293, Membrane. As to conditions: for IC50: hek293. For all read-outs here: in other assays of this panel Not Active means under 50% inhibition at 10 µM.
Melanocortin receptor 3, sequence (P41968 whole entry): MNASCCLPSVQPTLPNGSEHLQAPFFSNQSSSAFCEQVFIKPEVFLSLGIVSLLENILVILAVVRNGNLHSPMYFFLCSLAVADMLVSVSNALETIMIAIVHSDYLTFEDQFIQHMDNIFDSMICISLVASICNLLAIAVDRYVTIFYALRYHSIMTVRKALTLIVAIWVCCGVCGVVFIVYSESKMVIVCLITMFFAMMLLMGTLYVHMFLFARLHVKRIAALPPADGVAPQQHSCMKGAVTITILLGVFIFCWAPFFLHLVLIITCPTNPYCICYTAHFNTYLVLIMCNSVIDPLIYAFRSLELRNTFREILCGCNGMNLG
Test [3] is described as follows: DRUGMATRIX: Phosphodiesterase PDE4 enzyme inhibition (substrate: [3H]cAMP + cAMP). Particulars: u-937, Not Active = under 50% inhibition at 10 µM.
The target in test [4] is 5-hydroxytryptamine receptor 1B (Rattus norvegicus, UniProt P28564). It counts as cell membranes, Wistar, Cerebral cortex, Membrane. Particulars: for pIC50: read-out: IC50; for pKi: read-out: Ki. For all read-outs here: in other assays of this panel Not Active means under 50% inhibition at 10 µM.
5-hydroxytryptamine receptor 1B, sequence (P28564 whole entry): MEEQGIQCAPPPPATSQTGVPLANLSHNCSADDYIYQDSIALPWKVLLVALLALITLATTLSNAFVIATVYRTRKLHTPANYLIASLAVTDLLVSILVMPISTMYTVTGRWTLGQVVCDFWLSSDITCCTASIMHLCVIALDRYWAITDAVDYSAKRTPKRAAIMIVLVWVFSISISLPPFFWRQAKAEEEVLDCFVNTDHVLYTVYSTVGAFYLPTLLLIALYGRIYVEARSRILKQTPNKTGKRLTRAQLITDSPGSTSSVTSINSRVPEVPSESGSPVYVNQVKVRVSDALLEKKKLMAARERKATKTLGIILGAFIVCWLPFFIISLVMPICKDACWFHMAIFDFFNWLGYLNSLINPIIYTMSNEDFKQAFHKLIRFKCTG

pIC50, pKi: −log10 of the molar value.

5-hydroxytryptamine receptor 4, sequence (O70528 whole entry): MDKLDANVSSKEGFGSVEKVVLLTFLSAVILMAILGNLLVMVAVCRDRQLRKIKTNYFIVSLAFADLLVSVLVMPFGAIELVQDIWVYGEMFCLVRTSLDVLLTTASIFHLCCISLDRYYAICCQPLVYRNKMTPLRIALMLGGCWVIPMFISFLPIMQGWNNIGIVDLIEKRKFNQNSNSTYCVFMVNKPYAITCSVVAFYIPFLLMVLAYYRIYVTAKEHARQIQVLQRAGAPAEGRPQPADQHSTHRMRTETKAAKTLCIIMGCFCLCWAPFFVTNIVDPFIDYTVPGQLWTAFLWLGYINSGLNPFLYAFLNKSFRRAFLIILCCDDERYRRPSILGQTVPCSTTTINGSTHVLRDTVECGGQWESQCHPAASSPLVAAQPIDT

Broadly, the pIC50 is −log10 of the IC50, conventionally taken in molar units. The term pKi denotes the negative decadic logarithm of the Ki, by convention in mol/L. For the compound `CC[C@H](C)[C@@H](CO[C@@H](Cc1ccccc1)C(=O)N[C@@H](CCS(C)(=O)=O)C(=O)OC(C)C)NC[C@@H](N)CS`, the IC50 result (in test [1]; on Cannabinoid receptor 1; in test [2]; in test [3]; in test [4]) was “Not Active” each time. The Ki result in test [2] and in test [3] was “Not Active” in each case. The pIC50 on Melanocortin receptor 3 (read-out: IC50) is 5.47. Besides, the pKi at Melanocortin receptor 3 (read-out: Ki) was 5.53.

`Nc1nc(N)c2nc(-c3ccccc3)c(N)nc2n1`: the IC50 result (in test [1]; at Cannabinoid receptor 1; in test [2]; against Melanocortin receptor 3; in test [3]; in test [4]) was “Not Active” throughout. The Ki result in test [2] and in test [3] was “Not Active” in each case.

As for `CCN(CC)C(=S)SSC(=S)N(CC)CC`, the IC50 entry (in test [1]; against Cannabinoid receptor 1; in test [2]; on Melanocortin receptor 3) was “Not Active” each time. The Ki entry in test [2] is “Not Active”. For the same compound, the pIC50 in test [3] (read-out: IC50) was 5.32; in test [4], 5.33. In addition, the pKi in test [4] was 5.67.

Regarding `CN(C)CCC=C1c2ccccc2COc2ccccc21` [DOXEPIN], the IC50 entry (in test [1]; against Cannabinoid receptor 1; against Melanocortin receptor 3; in test [4]) was “Not Active” throughout.

Consider `O=C(c1ccccc1)c1ccc2n1CCC2C(=O)O` (stereo not given) [KETOROLAC], for which the IC50 result (in test [1]; at Cannabinoid receptor 1; in test [2]; against Melanocortin receptor 3; in test [3]; in test [4]) was “Not Active” each time. For the same compound, the Ki entry in test [2] and in test [3] was “Not Active” in each case.

As for `CCOC(=O)C1=C(C)NC(C)=C(C(=O)OCC)C1c1ccccc1/C=C/C(=O)OC(C)(C)C` [LACIDIPINE], the IC50 result (in test [1]; against Cannabinoid receptor 1; in test [2]; on Melanocortin receptor 3; in test [3]; in test [4]) was “Not Active” throughout. Further, the Ki entry in test [2] and in test [3] was “Not Active” each time.

As for `CC(O)C(=O)O` (stereo not given) [LACTIC ACID], the IC50 result (in test [1]; against Cannabinoid receptor 1; in test [2]; at Melanocortin receptor 3; in test [3]; in test [4]) was “Not Active” throughout. For the same compound, the Ki result in test [2] and in test [3] was “Not Active” in each case.

For the compound `CC(C)(C)NC[C@H](O)COc1cccc2c1CCCC2=O` [LEVOBUNOLOL], the IC50 result (in test [1]; at Cannabinoid receptor 1; in test [2]; against Melanocortin receptor 3; in test [3]; in test [4]) was “Not Active” each time. Further, the Ki entry in test [2] and in test [3] was “Not Active” throughout.

With `CO[C@@H]1[C@@H](OC)[C@H](C)[C@@](O)(CC(=O)O)O[C@H]1[C@H](C)[C@H]1O[C@@]2(CC[C@@](C)([C@H]3CC[C@@](C)([C@@H]4O[C@@H]([C@H]5O[C@](C)(O)[C@H](C)C[C@@H]5C)C[C@@H]4O[C@@H]4C[C@H](OC)[C@@H](OC)[C@H](C)O4)O3)O2)C[C@H](O)[C@H]1C.N` [MADURAMICIN], the IC50 result (in test [1]; at Cannabinoid receptor 1; in test [2]; at Melanocortin receptor 3; in test [3]; in test [4]) was “Not Active” each time. Moreover, the Ki entry in test [2] and in test [3] was “Not Active” each time.

On to `OC[C@@H](O)[C@@H](O)[C@H](O)[C@H](O)CO` [MANNITOL], for which the IC50 result (in test [1]; against Cannabinoid receptor 1; in test [2]; at Melanocortin receptor 3; in test [3]; in test [4]) was “Not Active” each time. For the same compound, the Ki entry in test [2] and in test [3] was “Not Active” each time.

On to `CNCCCC12CCC(c3ccccc31)c1ccccc12` [MAPROTILINE], for which the IC50 entry (in test [1]; on Cannabinoid receptor 1; against Melanocortin receptor 3; in test [4]) was “Not Active” each time.

For the compound `COC(=O)Nc1nc2ccc(C(=O)c3ccccc3)cc2[nH]1` [MEBENDAZOLE], the IC50 entry (in test [1]; at Cannabinoid receptor 1; in test [2]; against Melanocortin receptor 3; in test [3]; in test [4]) was “Not Active” in each case. Moreover, the Ki result in test [2] and in test [3] was “Not Active” each time.

On to `Cc1ccc(Cl)c(Nc2ccccc2C(=O)O)c1Cl` [MECLOFENAMIC ACID], for which the IC50 result (in test [1]; against Cannabinoid receptor 1; in test [2]; on Melanocortin receptor 3; in test [3]; in test [4]) was “Not Active” in each case. Also, the Ki result in test [2] and in test [3] was “Not Active” in each case.

For the compound `CC(=O)O[C@]1(C(C)=O)CC[C@H]2[C@@H]3C[C@H](C)C4=CC(=O)CC[C@]4(C)[C@H]3CC[C@@]21C` [MEDROXYPROGESTERONE ACETATE], the IC50 result (in test [1]; at Cannabinoid receptor 1; in test [2]; at Melanocortin receptor 3; in test [3]; in test [4]) was “Not Active” in each case. Also, the Ki result in test [2] and in test [3] was “Not Active” throughout.

As for `Cc1cnc(NC(=O)C2=C(O)c3ccccc3S(=O)(=O)N2C)s1` [MELOXICAM], the IC50 entry (in test [1]; at Cannabinoid receptor 1; in test [2]; on Melanocortin receptor 3; in test [3]; in test [4]) was “Not Active” each time. In addition, the Ki entry in test [2] and in test [3] was “Not Active” each time.

As to `CN1C[C@H](CNC(=O)OCc2ccccc2)C[C@@H]2c3cccc4c3c(cn4C)C[C@H]21` [METERGOLINE], the pIC50 in test [1] was 5.78; in test [4], 7.72. Besides, the pKi in test [1] is 6.56; in test [4] it was 7.96. Moreover, the IC50 result (at Cannabinoid receptor 1; in test [2]; against Melanocortin receptor 3; in test [3]) was “Not Active” throughout. Further, the Ki result in test [2] and in test [3] was “Not Active” throughout.

As for `C[N+]1(C)[C@@H]2C[C@@H](OC(=O)[C@H](CO)c3ccccc3)C[C@H]1[C@@H]1O[C@@H]12.[Br-]` [METHSCOPOLAMINE BROMIDE], the IC50 result (in test [1]; against Cannabinoid receptor 1; in test [2]; at Melanocortin receptor 3; in test [3]; in test [4]) was “Not Active” throughout. The Ki entry in test [2] and in test [3] was “Not Active” each time.

As to `CCN(CC)CCNC(=O)c1cc(Cl)c(N)cc1OC` [METOCLOPRAMIDE], the IC50 entry (in test [1]; on Cannabinoid receptor 1; in test [2]; against Melanocortin receptor 3; in test [3]; in test [4]) was “Not Active” each time. Moreover, the Ki entry in test [2] and in test [3] was “Not Active” each time.

On to `CC[C@H](C)C(=O)O[C@H]1CCC=C2C=C[C@H](C)[C@H](CC[C@@H]3C[C@@H](O)CC(=O)O3)[C@H]21` [MEVASTATIN], for which the IC50 result (in test [1]; against Cannabinoid receptor 1; in test [2]; against Melanocortin receptor 3; in test [3]; in test [4]) was “Not Active” in each case. For the same compound, the Ki entry in test [2] and in test [3] was “Not Active” each time.

As to `CC#C[C@]1(O)CC[C@H]2[C@@H]3CCC4=CC(=O)CCC4=C3[C@@H](c3ccc(N(C)C)cc3)C[C@@]21C` [MIFEPRISTONE], the IC50 result (in test [1]; at Cannabinoid receptor 1; in test [2]; at Melanocortin receptor 3; in test [3]; in test [4]) was “Not Active” each time. Further, the Ki result in test [2] and in test [3] was “Not Active” throughout.

Take `Cc1[nH]c(=O)c(C#N)cc1-c1ccncc1` [MILRINONE]: the IC50 result (in test [1]; against Cannabinoid receptor 1; in test [2]; against Melanocortin receptor 3; in test [3]; in test [4]) was “Not Active” throughout. Moreover, the Ki result in test [2] and in test [3] was “Not Active” in each case.

Turning to `CO[C@@]12[C@H](COC(N)=O)C3=C(C(=O)C(C)=C(N)C3=O)N1C[C@@H]1N[C@@H]12` [MITOMYCIN], the IC50 entry (in test [1]; at Cannabinoid receptor 1; in test [2]; against Melanocortin receptor 3; in test [3]; in test [4]) was “Not Active” throughout. Besides, the Ki entry in test [2] and in test [3] was “Not Active” throughout.

With `CCOc1cc(N)c(Cl)cc1C(=O)NCC1CN(Cc2ccc(F)cc2)CCO1` (stereo not given) [MOSAPRIDE], the pIC50 in test [1] was 6.05. The pKi in test [1] was 6.83. Moreover, the IC50 result (at Cannabinoid receptor 1; in test [2]; at Melanocortin receptor 3; in test [3]; in test [4]) was “Not Active” each time. Besides, the Ki result in test [2] and in test [3] was “Not Active” in each case.

With `Cc1cc2c(s1)Nc1ccccc1N=C2N1CCN(C)CC1` [OLANZAPINE], the IC50 result (in test [1]; against Cannabinoid receptor 1; on Melanocortin receptor 3) was “Not Active” throughout. The pIC50 in test [4] is 6.15. Further, in test [4], the pKi is 6.36.
